Source: patent US11780830B2, “Triazolone derivatives or salts thereof and pharmaceutical compositions comprising the same” (YUHAN CORPORATION, priority 2018, dated 2023)
Where a name gives a salt, the structure may show the parent alone.

How the values were obtained:
Assay type in all cases: biochemical
recombinant human VAP-1 = target: T1, recombinant human VAP-1 (Homo sapiens, UniProt Q16853); assay: Activity on recombinant human VAP-1, HRP-coupled Amplex Red hydrogen peroxide assay; conditions: substrate 1 mM benzylamine; compound incubated with enzyme at 37° C. for 30 minutes; pH 7.4; read-out: Inhibitory Activity (IC50, nM) human VAP-1
T1 construct: purchased R&D systems
T1 sequence (Q16853 1-763): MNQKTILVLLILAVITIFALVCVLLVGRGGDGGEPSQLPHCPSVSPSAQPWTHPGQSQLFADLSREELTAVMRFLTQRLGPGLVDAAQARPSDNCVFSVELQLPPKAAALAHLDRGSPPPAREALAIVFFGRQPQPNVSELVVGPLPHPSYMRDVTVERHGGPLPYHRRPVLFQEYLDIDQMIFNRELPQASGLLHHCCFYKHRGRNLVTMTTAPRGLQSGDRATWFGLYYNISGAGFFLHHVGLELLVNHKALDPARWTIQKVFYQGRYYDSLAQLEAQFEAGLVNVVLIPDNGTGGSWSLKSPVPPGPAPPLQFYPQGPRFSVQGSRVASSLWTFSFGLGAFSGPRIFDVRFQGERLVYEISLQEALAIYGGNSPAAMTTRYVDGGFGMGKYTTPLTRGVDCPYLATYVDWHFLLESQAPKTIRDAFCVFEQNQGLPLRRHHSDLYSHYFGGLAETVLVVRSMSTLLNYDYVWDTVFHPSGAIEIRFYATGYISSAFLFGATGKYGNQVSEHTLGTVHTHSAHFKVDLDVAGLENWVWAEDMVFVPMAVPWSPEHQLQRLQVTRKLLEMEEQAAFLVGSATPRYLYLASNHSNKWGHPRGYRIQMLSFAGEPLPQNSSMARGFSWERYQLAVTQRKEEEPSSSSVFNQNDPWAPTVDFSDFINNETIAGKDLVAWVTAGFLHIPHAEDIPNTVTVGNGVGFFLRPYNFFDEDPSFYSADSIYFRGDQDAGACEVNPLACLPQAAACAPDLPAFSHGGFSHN
In short: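 Compounds were preincubated with purified enzyme in 50 mM sodium phosphate pH 7.4 at 37 °C for 30 min, then 200 uM Amplex Red, 1 mM benzylamine and 1 U/mL HRP were added. Resorufin fluorescence (ex 544/em 590 nm) was followed over 1-2 h; IC50 came from 4-parameter fits of signal-rate inhibition.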

[1] = target: T2, recombinant human MAO-A (monoamine oxidase-A) (Homo sapiens, UniProt P21397); assay: Activity on recombinant human MAO-A, method similar to the VAP-1 assay; conditions: substrate 0.5 mM tyramine; read-out: Inhibitory Activity (IC50, nM) MAO-A
T2 construct: purchased Sigma-Aldrich
T2 sequence (P21397 1-527): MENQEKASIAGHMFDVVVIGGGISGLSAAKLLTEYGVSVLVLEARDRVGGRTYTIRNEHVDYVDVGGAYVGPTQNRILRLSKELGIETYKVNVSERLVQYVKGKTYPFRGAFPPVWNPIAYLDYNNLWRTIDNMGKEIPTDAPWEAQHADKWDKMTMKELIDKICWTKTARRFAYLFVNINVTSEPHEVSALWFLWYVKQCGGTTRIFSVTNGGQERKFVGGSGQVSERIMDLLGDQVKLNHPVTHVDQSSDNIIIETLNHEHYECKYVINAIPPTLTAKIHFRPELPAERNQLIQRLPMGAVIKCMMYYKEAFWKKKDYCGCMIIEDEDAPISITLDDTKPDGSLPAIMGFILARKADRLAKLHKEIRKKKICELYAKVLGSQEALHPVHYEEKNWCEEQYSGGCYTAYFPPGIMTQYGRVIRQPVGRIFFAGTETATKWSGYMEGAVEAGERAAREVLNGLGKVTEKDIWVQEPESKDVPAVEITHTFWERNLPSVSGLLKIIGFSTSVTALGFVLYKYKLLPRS
In short: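 8-point, 1:3 dose-response, four-parameter logistic IC50 from reduction in fluorescence rate versus DMSO control. HRP/Amplex Red detection of H2O2 (ex 544, em 590 nm) after 30 min, 37 °C compound–enzyme preincubation in pH 7.4 phosphate buffer. MAO-A substrate: 0.5 mM tyramine; MAO-B: 1 mM benzylamine.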

[2] = target: T3, recombinant human DAO (diamine oxidase) (Homo sapiens, UniProt P19801); assay: Activity on recombinant human DAO, method similar to the VAP-1 assay; conditions: substrate 1 mM putrescine; read-out: Inhibitory Activity (IC50, nM) DAO
T3 construct: purchased R&D systems
T3 sequence (P19801 20-751): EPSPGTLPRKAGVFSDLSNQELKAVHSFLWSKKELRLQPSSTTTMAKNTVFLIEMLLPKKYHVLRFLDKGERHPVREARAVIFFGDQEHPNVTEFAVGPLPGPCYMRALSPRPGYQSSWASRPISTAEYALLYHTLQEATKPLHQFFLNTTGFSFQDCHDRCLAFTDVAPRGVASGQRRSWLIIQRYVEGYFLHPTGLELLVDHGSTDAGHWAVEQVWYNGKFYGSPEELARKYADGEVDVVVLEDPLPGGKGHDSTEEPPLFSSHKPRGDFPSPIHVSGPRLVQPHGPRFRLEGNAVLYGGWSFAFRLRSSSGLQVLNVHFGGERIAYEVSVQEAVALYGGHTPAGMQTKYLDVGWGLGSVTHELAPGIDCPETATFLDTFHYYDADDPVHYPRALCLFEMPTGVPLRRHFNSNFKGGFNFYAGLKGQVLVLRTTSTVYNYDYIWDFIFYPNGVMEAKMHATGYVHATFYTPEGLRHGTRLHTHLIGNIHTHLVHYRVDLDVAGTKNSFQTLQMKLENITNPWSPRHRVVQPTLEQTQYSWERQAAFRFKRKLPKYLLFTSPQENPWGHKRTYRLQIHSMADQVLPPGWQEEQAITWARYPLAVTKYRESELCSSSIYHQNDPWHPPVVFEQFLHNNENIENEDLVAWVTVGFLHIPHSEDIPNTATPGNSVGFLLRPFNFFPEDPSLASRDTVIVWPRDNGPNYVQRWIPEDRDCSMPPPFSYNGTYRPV
In short: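 Inhibition of recombinant human diamine oxidase (DAO, R&D systems) was assessed by the same approach as the VAP-1 assay, using 1 mM putrescine as substrate. Hydrogen peroxide formed was detected through an HRP-coupled Amplex Red reaction yielding fluorescent resorufin, read at 544 nm excitation and 590 nm emission. IC50 values came from four-parameter logistic fitting in GraphPad Prism.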

[3] = target: T4, recombinant human MAO-B (monoamine oxidase-B) (Homo sapiens, UniProt P27338); assay: Activity on recombinant human MAO-B, method similar to the VAP-1 assay; conditions: substrate 1 mM benzylamine; read-out: Inhibitory Activity (IC50, nM) MAO-B
T4 construct: purchased Sigma-Aldrich
T4 sequence (P27338 1-520): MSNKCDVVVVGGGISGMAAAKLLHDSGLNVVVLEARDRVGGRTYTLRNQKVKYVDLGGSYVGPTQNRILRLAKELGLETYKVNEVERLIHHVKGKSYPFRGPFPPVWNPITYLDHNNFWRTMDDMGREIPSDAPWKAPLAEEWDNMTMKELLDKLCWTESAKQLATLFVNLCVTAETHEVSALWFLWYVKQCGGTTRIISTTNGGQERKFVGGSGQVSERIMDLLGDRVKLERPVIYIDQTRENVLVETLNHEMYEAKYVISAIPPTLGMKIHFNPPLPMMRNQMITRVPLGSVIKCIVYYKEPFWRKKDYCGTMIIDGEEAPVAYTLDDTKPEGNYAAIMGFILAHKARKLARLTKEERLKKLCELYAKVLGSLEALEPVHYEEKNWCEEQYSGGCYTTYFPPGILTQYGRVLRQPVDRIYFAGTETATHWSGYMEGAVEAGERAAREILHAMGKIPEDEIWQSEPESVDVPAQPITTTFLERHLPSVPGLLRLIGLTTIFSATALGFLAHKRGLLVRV
Experimental: The compounds according to the present technology were evaluated in terms of activity on recombinant human VAP-1 (R&D systems) by measuring the level of hydrogen peroxide in horseradish peroxidase (HRP)-coupled reaction using Amplex Red Hydrogen Peroxide Assay Kit (Molecular Probes, Invitrogen, USA). The experiment was carried out at room temperature using benzylamine as a substrate. In the HRP-coupled reaction, hydrogen peroxide oxidation of 10-acetyl-3,7-dihydroxyphenoxazine (Amplex Red reagent) produces resorufin, which is a highly fluorescent compound. Briefly, the test compound was dissolved in dimethyl sulfoxide (DMSO) at a concentration of 20 mM. The dose-response assessment was made by 1:3 serial dilution in DMSO, thereby creating an 8 point curve. The concentration of the upper part was controlled according to the efficacy of the compounds, followed by dilution with a reaction buffer solution to obtain a final DMSO concentration less than 1%. To each well of a 96 black well plate, human VAP-1 purified in 50 mM sodium phosphate buffer solution (pH7.4) was added. The test compounds dissolved in DMSO were incubated with the human VAP-1 enzymes at 37° C. for 30 minutes. After 30-minute incubation, each well is added with a reaction mixture containing 200 uM Amplex Red reagent prepared from 50 mM sodium phosphate buffer solution (pH 7.4), 1 mM benzylamine, and 1 U/mL HRP. Fluorescence intensity was measured at several time points during 1-2 hours using a microplate reader (Flexstation3, Molecular Devices) under the wavelength condition exciting at 544 nm and reading the emission at 590 nm. The inhibitory effect of the compounds was measured as a decrease (%) in the signal rate as compared to the control group without any inhibitor (only diluted DMSO). Data was fixed to a logistic model with four variables and IC50 value was calculated using GraphPad Prism program.
In addition, the compounds according to the present technology were evaluated in terms of activity on a recombinant human MAO-A (monoamine oxidase-A, Sigma-Aldrich) and a recombinant human MAO-B (monoamine oxidase-B, Sigma-Aldrich) by using as substrates, 0.5 mM tyramine and 1 mM benzylamine, respectively, with a method similar to the activity evaluation method for recombinant human VAP-1. The compounds according to the present technology were also evaluated in terms of activity on a recombinant human DAO (diamine oxidase, R&D systems) by using as a substrate 1 mM putrescine with a method similar to the activity evaluation method for recombinant human VAP-1.

| Compound | IC50 (recombinant human VAP-1) | IC50 [1] | IC50 [2] | IC50 [3] |
| --- | --- | --- | --- | --- |
| COCCOc1ccc(-c2ccc(Cn3cnn(C/C(=C/F)CN)c3=O)s2)cc1 [Example 19, 2-[(2E)-2-(aminomethyl)-3-fluoroprop-2-en-1-yl]-4-(5-[4-(2-methoxyethoxy)phenyl]thiophen-2-ylmethyl)-2,4-dihydro-3H-1,2,4-triazol-3-one hydrochloride] | 4.6 nM | > 100000 nM | 1800 nM | 1100 nM |
| NC/C(=C\F)Cn1ncn(Cc2ccc(-c3ccc(N4CCCC4)cc3)s2)c1=O [Example 20, 2-[(2E)-2-(aminomethyl)-3-fluoroprop-2-en-1-yl]-4-(5-[4-(pyrrolidin-1-yl)phenyl]thiophen-2-ylmethyl)-2,4-dihydro-3H-1,2,4-triazol-3-one hydrochloride] | 5 nM | 6600 nM | 2700 nM | 730 nM |
| NC/C(=C\F)Cn1ncn(Cc2ccc(-c3ccc(N4CCCC4=O)cc3)s2)c1=O [Example 21, 2-[(2E)-2-(aminomethyl)-3-fluoroprop-2-en-1-yl]-4-(5-[4-(2-oxopyrrolidin-1-yl)phenyl]thiophen-2-ylmethyl)-2,4-dihydro-3H-1,2,4-triazol-3-one hydrochloride] | 2 nM | > 100000 nM | 1300 nM | 3000 nM |
| NC/C(=C\F)Cn1ncn(Cc2ccc(-c3ccc(N4CCNCC4)cc3)s2)c1=O [Example 22, 2-[(2E)-2-(aminomethyl)-3-fluoroprop-2-en-1-yl]-4-(5-[4-(piperazin-1-yl)phenyl]thiophen-2-ylmethyl)-2,4-dihydro-3H-1,2,4-triazol-3-one hydrochloride] | 6.4 nM | > 100000 nM | 2400 nM | 2600 nM |
| NC/C(=C\F)Cn1ncn(Cc2ccc(-c3cccc(N4CCNCC4)c3)s2)c1=O [Example 23, 2-[(2E)-2-(aminomethyl)-3-fluoroprop-2-en-1-yl]-4-(5-[3-(piperazin-1-yl)phenyl]thiophen-2-ylmethyl)-2,4-dihydro-3H-1,2,4-triazol-3-one hydrochloride] | 2.5 nM | > 100000 nM | 3200 nM | 300 nM |
| CC(=O)N1CCN(c2ccc(-c3ccc(Cn4cnn(C/C(=C/F)CN)c4=O)s3)cc2)CC1 [Example 24, 4-(5-[4-(4-acetylpiperazin-1-yl)phenyl]thiophen-2-ylmethyl)-2-[(2E)-2-(aminomethyl)-3-fluoroprop-2-en-1-yl]-2,4-dihydro-3H-1,2,4-triazol-3-one hydrochloride] | 1.4 nM | 21000 nM | 670 nM | > 10000 nM |
| NC/C(=C\F)Cn1ncn(Cc2ccc(-c3ccc(C4CCOCC4)cc3)s2)c1=O [Example 25, 2-[(2E)-2-(aminomethyl)-3-fluoroprop-2-en-1-yl]-4-(5-[4-(tetrahydro-2H-pyran-4-yl)phenyl]thiophen-2-ylmethyl)-2,4-dihydro-3H-1,2,4-triazol-3-one hydrochloride] | 3.1 nM | > 100000 nM | 690 nM | 1300 nM |
| NC/C(=C\F)Cn1ncn(Cc2ccc(-c3ccc(C(=O)N4CCOCC4)cc3)s2)c1=O [Example 27, 2-[(2E)-2-(aminomethyl)-3-fluoroprop-2-en-1-yl]-4-(5-[4-(morpholin-4-ylcarbonyl)phenyl]thiophen-2-ylmethyl)-2,4-dihydro-3H-1,2,4-triazol-3-one hydrochloride] | 1.1 nM | > 100000 nM | 470 nM | 18000 nM |
